# Laboratory results from PubChem BioAssay (NCI).
#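 Following 48 hours of exposure in 96-well plates, responses at five concentrations were used to interpolate endpoints linearly. GI50 marks 50% less growth. The concentration for full growth arrest is given as TGI.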
# Assays:
# Test in all cases: NCI anticancer screen, dose series, 48 h
# [1] = system: 786-0 renal
# [2] = system: A498 renal
# [3] = system: ACHN renal
# [4] = system: BT-549 breast
# [5] = system: CAKI-1 renal
# [6] = system: DU-145 prostate
# [7] = system: EKVX NSCLC
# [8] = system: HOP-62 NSCLC
# [9] = system: HOP-92 NSCLC
# [10] = system: HS 578T breast
# [11] = system: KM12 colon
# [12] = system: MALME-3M melanoma
# [13] = system: MDA-MB-435
# [14] = system: NCI-H23 lung
# [15] = system: OVCAR-3 ovarian
# [16] = system: OVCAR-4 ovarian
# [17] = system: OVCAR-5 ovarian
# [18] = system: PC-3 prostate
# [19] = system: RXF 393 renal
# [20] = system: SF-268 CNS
# [21] = system: SF-539 CNS
# [22] = system: SK-MEL-28 melanoma
# [23] = system: SK-MEL-5 melanoma
# [24] = system: SK-OV-3 ovarian
# [25] = system: SNB-75 CNS
# [26] = system: TK-10 renal
# [27] = system: UACC-62 melanoma
# [28] = system: UO-31 renal
# [29] = system: A549 NSCLC
# [30] = system: CCRF-CEM leukemia
# [31] = system: COLO 205 colon
# [32] = system: HCC-2998 colon
# [33] = system: HCT-116 colon
# [34] = system: HCT-15 colon
# [35] = system: HL-60(TB) leukemia
# [36] = system: HT29 colon
# [37] = system: IGROV1 ovarian
# [38] = system: K-562 leukemia
# [39] = system: LOX IMVI melanoma
# [40] = system: M14 melanoma
# [41] = system: MCF7 breast
# [42] = system: MDA-MB-231 breast
# [43] = system: MOLT-4 leukemia
# [44] = system: NCI-H226 lung
# [45] = system: NCI-H460 lung
# [46] = system: NCI-H522 lung
# [47] = system: NCI/ADR-RES ovarian
# [48] = system: OVCAR-8 ovarian
# [49] = system: RPMI-8226 leukemia
# [50] = system: SF-295 CNS
# [51] = system: SK-MEL-2 melanoma
# [52] = system: SN12C renal
# [53] = system: SNB-19 CNS
# [54] = system: SW-620 colon
# [55] = system: T-47D breast
# [56] = system: U251 CNS
# [57] = system: UACC-257 melanoma
# [58] = system: SR leukemia
smiles,measurement,setting,value
CC[C@]12C=CCN3CC[C@@]4(c5cc(NC(=O)COc6cc(O)c7c(=O)cc(-c8ccccc8)oc7c6)c(OC)cc5N(C)[C@H]4[C@@](O)(C(=O)OC)[C@@H]1OC(C)=O)[C@@H]32,GI50,[1],1790 nM
same,TGI,[1],3530 nM
same,GI50,[2],1480 nM
same,TGI,[2],3100 nM
same,GI50,[3],1670 nM
same,TGI,[3],3200 nM
same,GI50,[4],1640 nM
same,TGI,[4],3180 nM
same,GI50,[5],1810 nM
same,TGI,[5],4290 nM
same,GI50,[6],2400 nM
same,TGI,[6],5570 nM
same,GI50,[7],2000 nM
same,TGI,[7],4600 nM
same,GI50,[8],1880 nM
same,TGI,[8],3940 nM
same,GI50,[9],1360 nM
same,TGI,[9],2980 nM
same,GI50,[10],1990 nM
same,TGI,[10],4790 nM
same,GI50,[11],2070 nM
same,TGI,[11],5140 nM
same,GI50,[12],1580 nM
same,TGI,[12],2970 nM
same,GI50,[13],1560 nM
same,TGI,[13],3020 nM
same,GI50,[14],1850 nM
same,TGI,[14],3450 nM
same,GI50,[15],2810 nM
same,TGI,[15],7170 nM
same,GI50,[16],1880 nM
same,TGI,[16],3420 nM
same,GI50,[17],1720 nM
same,TGI,[17],3200 nM
same,GI50,[18],1310 nM
same,TGI,[18],2780 nM
same,GI50,[19],1740 nM
same,TGI,[19],3200 nM
same,GI50,[20],1980 nM
same,TGI,[20],4510 nM
same,GI50,[21],1670 nM
same,TGI,[21],3200 nM
same,GI50,[22],1750 nM
same,TGI,[22],3200 nM
same,GI50,[23],1810 nM
same,TGI,[23],3340 nM
same,GI50,[24],2150 nM
same,TGI,[24],4790 nM
same,GI50,[25],1340 nM
same,TGI,[25],3970 nM
same,GI50,[26],2150 nM
same,TGI,[26],4840 nM
same,GI50,[27],1850 nM
same,TGI,[27],3690 nM
same,GI50,[28],1680 nM
same,TGI,[28],3080 nM
C#CCOc1ccc(-c2csc(NC(=O)C=C)n2)cc1NS(=O)(=O)c1cccc2c(N(C)C)cccc12,GI50,[1],909 nM
same,TGI,[1],1940 nM
same,GI50,[2],1710 nM
same,TGI,[2],6830 nM
same,GI50,[29],2970 nM
same,TGI,[29],13200 nM
same,GI50,[3],861 nM
same,TGI,[3],1740 nM
same,GI50,[4],810 nM
same,TGI,[4],1520 nM
same,GI50,[5],1380 nM
same,TGI,[5],5810 nM
same,GI50,[30],312 nM
same,TGI,[30],2650 nM
same,GI50,[31],2190 nM
same,TGI,[31],7970 nM
same,GI50,[6],1540 nM
same,TGI,[6],5250 nM
same,GI50,[7],7920 nM
same,TGI,[7],22600 nM
same,GI50,[32],3000 nM
same,TGI,[32],9580 nM
same,GI50,[33],800 nM
same,TGI,[33],1570 nM
same,GI50,[34],900 nM
same,TGI,[34],2160 nM
same,GI50,[35],683 nM
same,TGI,[35],2120 nM
same,GI50,[8],1640 nM
same,TGI,[8],8040 nM
same,GI50,[9],819 nM
same,TGI,[9],3610 nM
same,GI50,[10],1680 nM
same,TGI,[10],22300 nM
same,GI50,[36],838 nM
same,TGI,[36],1670 nM
same,GI50,[37],1090 nM
same,TGI,[37],2700 nM
same,GI50,[38],1200 nM
same,TGI,[38],3800 nM
same,GI50,[11],2210 nM
same,TGI,[11],8270 nM
same,GI50,[39],25.2 nM
same,TGI,[39],668 nM
same,GI50,[40],1020 nM
same,TGI,[40],2580 nM
same,GI50,[12],1070 nM
same,TGI,[12],3460 nM
same,GI50,[41],1090 nM
same,TGI,[41],5100 nM
same,GI50,[42],1790 nM
same,TGI,[42],9420 nM
same,GI50,[13],1310 nM
same,TGI,[13],3840 nM
same,GI50,[43],1180 nM
same,TGI,[43],3830 nM
same,GI50,[44],1170 nM
same,TGI,[44],3510 nM
same,GI50,[14],1790 nM
same,TGI,[14],7670 nM
same,GI50,[45],2110 nM
same,TGI,[45],8520 nM
same,GI50,[46],806 nM
same,TGI,[46],1630 nM
same,GI50,[47],1450 nM
same,TGI,[47],50000 nM
same,GI50,[16],3000 nM
same,TGI,[16],22600 nM
same,GI50,[17],1470 nM
same,TGI,[17],6180 nM
same,GI50,[48],930 nM
same,TGI,[48],2020 nM
same,GI50,[18],1900 nM
same,TGI,[18],8550 nM
same,GI50,[49],947 nM
same,TGI,[49],2570 nM
same,GI50,[19],1120 nM
same,TGI,[19],2070 nM
same,GI50,[20],2460 nM
same,TGI,[20],11000 nM
same,GI50,[50],3810 nM
same,TGI,[50],11500 nM
same,GI50,[21],861 nM
same,TGI,[21],1780 nM
same,GI50,[51],973 nM
same,TGI,[51],2190 nM
same,GI50,[22],1250 nM
same,TGI,[22],3610 nM
same,GI50,[23],1680 nM
same,TGI,[23],6280 nM
same,GI50,[24],7070 nM
same,TGI,[24],15700 nM
same,GI50,[52],1300 nM
same,TGI,[52],5020 nM
same,GI50,[53],2250 nM
same,TGI,[53],12100 nM
same,GI50,[25],862 nM
same,TGI,[25],4600 nM
same,GI50,[54],848 nM
same,TGI,[54],1750 nM
same,GI50,[55],1490 nM
same,TGI,[55],6950 nM
same,GI50,[26],934 nM
same,TGI,[26],2040 nM
same,GI50,[56],2400 nM
same,TGI,[56],8390 nM
same,GI50,[57],2460 nM
same,TGI,[57],10000 nM
same,GI50,[27],1180 nM
same,TGI,[27],6050 nM
same,GI50,[28],727 nM
same,TGI,[28],1430 nM
C#C[C@]1(O)CC[C@H]2[C@@H]3CC=C4c5sc(Nc6ccc(C)cn6)nc5CC[C@]4(C)[C@H]3CC[C@@]21C,GI50,[1],198 nM
same,TGI,[1],610 nM
same,GI50,[2],376 nM
same,TGI,[2],1120 nM
same,GI50,[29],1350 nM
same,TGI,[29],12300 nM
same,GI50,[3],907 nM
same,TGI,[3],11200 nM
same,GI50,[4],566 nM
same,TGI,[4],3050 nM
same,GI50,[5],597 nM
same,TGI,[5],4000 nM
same,GI50,[30],431 nM
same,TGI,[30],3300 nM
same,GI50,[31],1490 nM
same,TGI,[31],3680 nM
same,GI50,[6],1840 nM
same,TGI,[6],11500 nM
same,GI50,[7],994 nM
same,TGI,[7],9920 nM
same,GI50,[32],2230 nM
same,TGI,[32],7260 nM
same,GI50,[33],504 nM
same,TGI,[33],2170 nM
same,GI50,[34],1000 nM
same,TGI,[34],2740 nM
same,GI50,[8],1070 nM
same,TGI,[8],4340 nM
same,GI50,[9],877 nM
same,TGI,[9],4130 nM
same,GI50,[10],265 nM
same,TGI,[10],986 nM
same,GI50,[36],1200 nM
same,TGI,[36],3260 nM
same,GI50,[37],1750 nM
same,TGI,[37],12900 nM
same,GI50,[38],408 nM
same,TGI,[38],> 100000 nM
same,GI50,[11],1050 nM
same,TGI,[11],4510 nM
same,GI50,[40],536 nM
same,TGI,[40],2550 nM
same,GI50,[12],559 nM
same,TGI,[12],2420 nM
same,GI50,[41],402 nM
same,TGI,[41],1920 nM
same,GI50,[42],1280 nM
same,TGI,[42],4000 nM
same,GI50,[13],715 nM
same,TGI,[13],3670 nM
same,GI50,[43],300 nM
same,GI50,[44],2160 nM
same,TGI,[44],8320 nM
same,GI50,[14],1240 nM
same,TGI,[14],5160 nM
same,GI50,[45],652 nM
same,TGI,[45],5290 nM
same,GI50,[46],2010 nM
same,TGI,[46],4580 nM
same,GI50,[47],1860 nM
same,TGI,[47],6940 nM
same,GI50,[15],1850 nM
same,TGI,[15],6150 nM
same,GI50,[16],1900 nM
same,TGI,[16],13800 nM
same,GI50,[17],2130 nM
same,TGI,[17],6760 nM
same,GI50,[48],2020 nM
same,TGI,[48],> 27100 nM
same,GI50,[18],379 nM
same,TGI,[18],5080 nM
same,GI50,[49],199 nM
same,TGI,[49],609 nM
same,GI50,[19],53.6 nM
same,TGI,[19],261 nM
same,GI50,[20],1070 nM
same,TGI,[20],10600 nM
same,GI50,[50],184 nM
same,TGI,[50],411 nM
same,GI50,[21],203 nM
same,TGI,[21],646 nM
same,GI50,[51],741 nM
same,TGI,[51],3230 nM
same,GI50,[22],254 nM
same,TGI,[22],727 nM
same,GI50,[23],1270 nM
same,TGI,[23],2580 nM
same,GI50,[24],717 nM
same,TGI,[24],3300 nM
same,GI50,[52],2520 nM
same,TGI,[52],10500 nM
same,GI50,[53],1220 nM
same,TGI,[53],4830 nM
same,GI50,[25],332 nM
same,TGI,[25],3450 nM
same,GI50,[58],343 nM
same,GI50,[54],657 nM
same,TGI,[54],2230 nM
same,GI50,[55],1970 nM
same,TGI,[55],12100 nM
same,GI50,[26],2550 nM
same,TGI,[26],9900 nM
same,GI50,[56],537 nM
same,TGI,[56],5770 nM
same,GI50,[57],947 nM
same,TGI,[57],3350 nM
same,GI50,[27],363 nM
same,TGI,[27],1430 nM
same,GI50,[28],378 nM
same,TGI,[28],1620 nM
